The term IC50 denotes the midpoint of a concentration-inhibition curve. As usually defined, the MIC is the smallest concentration in the dilution series that meets the test's criterion for growth inhibition.

“Also recorded” adds a separate entry of the source. Where two headings read alike, the source gives them in different places.

These results are taken from article PMC11284088, “Synthesis and biochemical characterization of naphthoquinone derivatives targeting bacterial histidine kinases” (The Journal of Antibiotics, 2024).

In one assay the target is T1, WalK (Bacillus subtilis, UniProt Q45614).
T1 construct: His6 (N); made in house; host or cells: E. coli BL21(DE3)
T1 sequence (Q45614 207-611): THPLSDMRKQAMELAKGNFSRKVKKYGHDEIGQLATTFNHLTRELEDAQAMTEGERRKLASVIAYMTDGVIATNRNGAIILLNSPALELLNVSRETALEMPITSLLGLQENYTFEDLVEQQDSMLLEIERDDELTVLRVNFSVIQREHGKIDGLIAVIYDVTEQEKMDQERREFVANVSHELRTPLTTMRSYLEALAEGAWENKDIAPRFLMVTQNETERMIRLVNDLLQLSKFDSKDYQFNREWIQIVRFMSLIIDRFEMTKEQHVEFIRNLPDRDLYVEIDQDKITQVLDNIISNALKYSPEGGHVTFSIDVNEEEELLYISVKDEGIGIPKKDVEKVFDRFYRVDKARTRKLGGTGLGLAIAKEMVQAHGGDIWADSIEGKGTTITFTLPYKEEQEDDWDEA
The assay is described as follows: Inhibition of WalK autophosphorylation. To be noted: for IC50: against WalK from B. subtilis, autophosphorylation, N.I. = no inhibition, read-out: IC50; for WalK: summary class; for inhibitory activity against WalK: in words. Also noted: key to WalK: WalK + inhibitory effect against WalK. It counts as biochemical. The protocol:
(§1) Autophosphorylation of WalK was conducted at 0.5 or 1 µM in a reaction mixture comprising 50 mM Tris-HCl (pH 8.5), 100 mM KCl, 5 mM MgCl2, 100 mM NH4Cl, 5% DMSO, and 40 µM ATP. The total reaction volume was 40 µl, and the incubation lasted for 30 min at 25 °C. To terminate the reaction, 40 µl of 2 × SDS-PAGE sample buffer was added, followed by a 10-min incubation at 37 °C. Subsequently, SDS-PAGE (10% acrylamide) was performed, and the samples were subjected to Western blotting using a PVDF membrane (Bio-Rad 1620177). The primary antibody used was anti-N3-phosphohistidine antibody (clone SC56-2) (EDM Millipore Corp), and the secondary antibody was goat anti-rabbit IgG-HRP (Abcam). A 2% bovine serum albumin (Sigma-Aldrich) solution served as the blocking reagent. Signals originating from phosphorylated HKs were detected using the HRP substrate (Immobilon Western Chemiluminescent HRP substrate, Millipore) and the Multi Imager II Multi Box (Bio Tools). Signal intensities were quantified with Image Analysis Software CS Analyzer 4 (ATTO). IC50 values (50% inhibitory concentrations) were determined using Prism 7 software (GraphPad).
(§2) In the assessment of naphthoquinone derivatives, the initial screening for inhibitory activity against WalK autophosphorylation was conducted at 50 or 100 µg ml^−1. Compounds displaying inhibitory activity were further examined to ascertain their IC50 values against WalK. For the chosen compounds, inhibition against EvgS, EnvZ, PhoQ, and CpxA HKs was also assessed. These reactions involved the use of 1 µM HK, 40 µM ATP, and a 30 min incubation at 25 °C.

For another assay, the target named is T2, EnvZ (Escherichia coli, UniProt P0AEJ4).
T2 construct: pETEcEnvZ(223-450); His6 (C); made in house; host or cells: E. coli BL21(DE3)
T2 sequence (P0AEJ4 223-450): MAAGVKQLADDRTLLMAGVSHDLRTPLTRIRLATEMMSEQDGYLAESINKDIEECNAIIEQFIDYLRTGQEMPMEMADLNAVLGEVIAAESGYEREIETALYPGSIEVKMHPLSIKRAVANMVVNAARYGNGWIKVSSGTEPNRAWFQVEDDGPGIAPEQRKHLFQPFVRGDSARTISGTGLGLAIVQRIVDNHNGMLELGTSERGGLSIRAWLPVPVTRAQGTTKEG
As to the kind of experiment: Inhibition of EnvZ autophosphorylation. To be noted: EnvZ; 1 µM HK, 40 µM ATP, 30 min at 25 °C; read-out: IC50. It counts as biochemical, Escherichia coli K12. The protocol:
as §1, §2

For another assay, the target named is T3, EvgS (559–1197) D1009A (Escherichia coli, UniProt P30855, D1009A).
T3 construct: EvgS (559–1197) D1009A; His6 (C); made in house; host or cells: E. coli BL21(DE3)
T3 sequence (P30855 559-1197 D1009A): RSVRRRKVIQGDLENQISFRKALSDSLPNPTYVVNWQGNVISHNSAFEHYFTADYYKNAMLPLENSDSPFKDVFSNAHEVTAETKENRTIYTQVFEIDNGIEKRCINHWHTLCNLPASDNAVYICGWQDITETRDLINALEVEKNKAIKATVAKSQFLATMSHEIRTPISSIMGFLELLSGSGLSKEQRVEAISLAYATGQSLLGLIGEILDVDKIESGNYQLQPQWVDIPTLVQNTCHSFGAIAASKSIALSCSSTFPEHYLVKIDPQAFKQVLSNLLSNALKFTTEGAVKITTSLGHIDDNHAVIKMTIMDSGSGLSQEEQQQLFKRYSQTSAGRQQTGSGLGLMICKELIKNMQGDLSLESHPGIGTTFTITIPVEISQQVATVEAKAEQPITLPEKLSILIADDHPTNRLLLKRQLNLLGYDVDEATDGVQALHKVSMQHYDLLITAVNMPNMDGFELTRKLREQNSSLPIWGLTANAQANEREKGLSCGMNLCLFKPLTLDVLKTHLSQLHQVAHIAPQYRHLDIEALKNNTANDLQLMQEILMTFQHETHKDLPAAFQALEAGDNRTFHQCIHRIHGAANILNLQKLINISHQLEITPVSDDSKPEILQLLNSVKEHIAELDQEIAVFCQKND
The assay is described as follows: Inhibition of EvgS autophosphorylation. It counts as biochemical, Escherichia coli K12. The note with it: EvgS (559–1197) D1009A; 1 µM HK, 40 µM ATP, 30 min at 25 °C; read-out: IC50. The procedure: as §1, §2

In assay [1] the target is T4, WalK (207-611, B. subtilis) (Bacillus subtilis, UniProt Q45614).
T4 construct: His6 (N); made in house; host or cells: E. coli BL21(DE3)
T4 sequence (Q45614 207-611): as the sequence (Q45614 207-611) above
As to the kind of experiment: Affinity selection/mass spectrometry, competition with waldiomycin. It counts as binding. Further details: key to AS/MS: AS/MS + competitive inhibition of the binding of waldiomycin to WalK; − increased binding of waldiomycin to WalK. To be noted: for AS/MS: summary class, effect on binding of waldiomycin to WalK; for increase of MS signal of the collected waldiomycin compared to only waldiomycin: compound 30 or 100 µM. The procedure:
The affinity selection/mass spectrometry (AS/MS) is a method which can detect the binding of small compounds to proteins. This experiment was carried out following a previously established protocol (Fig. 5), with the exception of using Millipore 96-well filter plates (MSBVN1210) instead of MAHAN4510. In the experiment, 1 µM of WalK (207-611, B. subtilis, refer to Table S2) was combined and incubated with 5 µM of waldiomycin and competitor compounds in a reaction buffer. The buffer composition was as follows: 25 mM Tris-HCl (pH 8.0), 50 mM KCl, 50 mM NH4Cl, 5 mM MgCl2, 1 mM DTT, and 0.1% CHAPS. Following the incubation, the mixture was subjected to size-exclusion chromatography via centrifugation to eliminate free compounds. The protein that was eluted was then denatured by adding an equal volume of methanol/0.1% formic acid. The compounds that were subsequently released from the protein were detected using an LC/MS system. The concentrations of waldiomycin were calculated from the value of peak areas using calibration curve that covered the range of 1 nM to 1 µM (R^2 = 0.9991). The concentration of waldiomycin in the eluate of WalK and waldiomycin without competitor was 10.1 nM, and percentages to this value were calculated for other samples.

In assay [2] the test system is HKs (EvgS, EnvZ, PhoQ, and CpxA). As to the kind of experiment: Inhibition of class I HKs, summary over several HKs. It counts as biochemical, Escherichia coli K12. Further details: key to HKs: HKs + inhibitory effect against HKs (EvgS, EnvZ, PhoQ, and CpxA). To be noted: for inhibition of EvgS, EnvZ, PhoQ, and CpxA: in words; for HKs: summary class, EvgS, EnvZ, PhoQ, and CpxA. The procedure: as §1, §2

The test system of another assay is B. subtilis 168 strain. As to the kind of experiment: MIC, standard microtiter broth dilution. Also noted: key to MIC: MIC + antibacterial activity against Bacillus subtilis 168. It counts as cell-based, Bacillus subtilis. The procedure: The minimum inhibitory concentrations (MICs) were determined using the standard microtiter broth dilution method, as recommended by the guidelines of the Clinical Laboratory Standards Institute.

The subject of another assay is iseA (formerly yoeB). As to the kind of experiment: RT-qPCR of iseA expression in B. subtilis cells. It counts as cell-based, B. subtilis 168. Also noted: key to RT-qPCR: RT-qPCR + iseA gene expression was induced in B. subtilis 168; − no effect. The note with it: for expression of iseA: exponentially growing cells, subMIC or MIC levels, 5 min, relative to DMSO control; for RT-qPCR: summary class, iseA gene expression in B. subtilis 168. The procedure: In brief, the cells were aerated and grown to an optical density at 660 nm of 0.3–0.4 at 37 °C. After the addition of DMSO or naphthoquinone derivatives, the cultures were further incubated for 5 min, cooled on ice for 1 min, and then harvested by centrifugation (2300 × g, 10 min, 4 °C). The cells were resuspended in 800 µl of RNA Lysis Buffer (SV Total RNA Isolation System, Z3100, Promega), transferred to a screw-capped tube containing 400 mg of glass beads (GB-01, TOMY), and disrupted using MicroSmash (MS-100, TOMY Medico) at 3000 rpm, 60 s ON/OFF for 6 cycles. RNA was then purified from 175 µl of the supernatant using the SV Total RNA Isolation System, followed by DNase I treatment (Turbo DNA-free^TM Kit, AM1907, Invitrogen) to remove any residual genomic DNA contamination. […] The expression levels of the genes were normalized using the 16S rRNA gene as an internal standard. Each assay was performed at least three times. Statistical analyses were conducted using Tukey’s multiple comparison test (GraphPad Prism 7).
(In general: Real-time PCR tracks product formation cycle by cycle.)

Setting [3] is: B. subtilis 168 strain grown in LB broth at 37 °C for 18 h.
[4] abbreviates: summary class, Bacillus subtilis 168.

For the molecule `Cc1noc2c1C(=O)c1c(O)ccc(O)c1C2=O` [3b, 5,8-dihydroxy-3-methylnaphtho[2,3-d]isoxazole-4,9-dione], the IC50 was determined as 186 µM at WalK, 77.3 µM at EnvZ and 109 µM on EvgS (559–1197) D1009A. On WalK, the WalK result is “+”. In assay [1] (compound 30 and 100 µM, in words), the “effect on the signal of waldiomycin” value is “reduced the signal of waldiomycin in a dose-dependent manner”. Moreover, the “signal of waldiomycin compared to only waldiomycin with WalK” value in assay [1] (compound at 100 µM, waldiomycin 5 µM, WalK 1 µM) was “about 10%”. In addition, the “binding to WalK competitive with that of waldiomycin” value (shortened to “binding to WalK competitive”) in assay [1] (in words) was “competitive; also recorded: competitively interacted with waldiomycin”. In assay [1], the AS/MS entry is given as “+”. Besides, the “inhibition of EvgS, EnvZ, PhoQ, and CpxA” value in assay [2] is recorded as “inhibited all four of these HKs”. For the same molecule, the HKs result in assay [2] is reported as “+”. In addition, the MIC in the assay with B. subtilis 168 strain (setting [3]) is 0.5 µg/mL; with B. subtilis 168 strain (setting [4]), “+”. Further, the “antibacterial (antimicrobial) activity against B. subtilis” value in the assay on B. subtilis 168 strain (in words) is listed as “equal to waldiomycin or even stronger”. Moreover, the “expression of iseA” value in the assay on iseA (formerly yoeB) is given as “significantly increased; also recorded: significantly induced iseA gene expression”. Besides, the RT-qPCR result in the assay on iseA (formerly yoeB) was “+”.

With `O=C1C(Cl)=C(Nc2ccc(Cl)c(O)c2)C(=O)c2c(O)ccc(O)c21` [2h, 2-chloro-3-((4-chloro-3-hydroxyphenyl)amino)-5,8-dihydroxynaphthalene-1,4-dione], the IC50 at WalK (listed as C00015) worked out at 12.6 µM; on EnvZ, 47.2 µM; on EvgS (559–1197) D1009A, 25.8 µM. In addition, the “inhibitory activity against WalK” value at WalK is given as “comparable to waldiomycin”. On WalK, the WalK entry is recorded as “+”. Moreover, in assay [1] (waldiomycin 5 µM, WalK 1 µM), the “increase of MS signal of the collected waldiomycin compared to only waldiomycin” value is “about twofold”. In addition, in assay [1] (in words), the “binding to WalK competitive” value is listed as “not competitive; also recorded: enhanced the binding of waldiomycin to WalK”. For the same molecule, the AS/MS result in assay [1] was “−”. Also, the “inhibition of EvgS, EnvZ, PhoQ, and CpxA” value in assay [2] was “inhibited all four of these HKs”. The HKs entry in assay [2] is reported as “+”. Further, the minimal inhibitory concentration (MIC) was 8 µg/mL in the assay on B. subtilis 168 strain (setting [3]); 8 µg/mL in the assay on B. subtilis 168 strain (B. subtilis 168 strain grown in LB broth at 37 °C for 18 h, listed as C00015); “+” in the assay on B. subtilis 168 strain (setting [4]). In addition, the “expression of iseA” value in the assay on iseA (formerly yoeB) is listed as “significantly increased; also recorded: significantly induced iseA gene expression”. Further, the RT-qPCR entry in the assay on iseA (formerly yoeB) is given as “+”.

For `CC(C)(C)OC(=O)Nc1cccc(NC2=C(Cl)C(=O)c3c(O)ccc(O)c3C2=O)c1` [2l, tert-butyl (3-((3-chloro-5,8-dihydroxy-1,4-dioxo-1,4-dihydronaphthalen-2-yl)amino)phenyl)carbamate], on WalK, the IC50 was 13 µM, the “inhibitory activity against WalK” value is “comparable to waldiomycin” and the WalK result was “+”. Moreover, the IC50 on EnvZ came to 26.8 µM. At EvgS (559–1197) D1009A, the IC50 worked out at 50 µM. Further, the “increase of MS signal of the collected waldiomycin compared to only waldiomycin” value in assay [1] (waldiomycin 5 µM, WalK 1 µM) is on record as “about twofold”. The “binding to WalK competitive” value in assay [1] (in words) is on record as “not competitive; also recorded: enhanced the binding of waldiomycin to WalK”. Moreover, the AS/MS entry in assay [1] is listed as “−”. In assay [2], the “inhibition of EvgS, EnvZ, PhoQ, and CpxA” value is reported as “inhibited all four of these HKs”; the HKs result is “+”. In addition, the MIC with B. subtilis 168 strain (setting [3]) stood at 8 µg/mL. Further, the MIC result with B. subtilis 168 strain (setting [4]) is “+”. For the same molecule, in the assay on iseA (formerly yoeB), the “expression of iseA” value is recorded as “significantly increased; also recorded: significantly induced iseA gene expression” and the RT-qPCR entry was “+”.
